Measured values published in US11918615B2, “Anti-inflammatory botanical extract” (Innophos, LLC, priority 2018, dated 2024).

Test system: potato 5-Lipoxygenase enzyme
Experiment: Lipoxygenase Inhibitor Screening Assay Kit (Cayman), hydroperoxide formation, absorbance 492 nm
Format: biochemical
Conditions: positive control at 100 μM
Description: Extracts of cranberry fruit (E1) and cranberry leaf (E2) were prepared with food-grade ethanol, and then filtered and dried as described above. Research grade reagents were used for the rest of the assay preparations. Extracts were dissolved in dimethyl sulfoxide (‘DMSO’) to a final concentration of 50 mg/mL, and then diluted in appropriate buffer for each bioassay to working concentrations.
Cranberry fruit extract (E1) and cranberry leaf extract (E2) were tested for 5-LOX inhibition using the Lipoxygenase Inhibitor Screening Assay Kit (available from Cayman Chemical, Ann Arbor, Michigan, US) and potato 5-Lipoxygenase enzyme (available from Cayman Chemical). This kit measures hydroperoxides produced in the lipoxygenation reaction.
The extracts were dissolved in methanol to final working concentrations. 5-LOX enzyme, Chromagen, and Linoleic Acid solutions were prepared immediately before use. Nordihydroguaiaretic acid (‘NDGA’) was used as a positive control. 5-LOX enzyme was added to the test samples and controls and incubated for five minutes at room temperature to allow for enzyme/inhibitor interaction. Linoleic acid substrate was added to the plate to initiate the reaction, and the plate was then shaken at room temperature for 10 minutes. […] The absorbance was then read at 492 nm. Percent inhibition of the extract concentration was calculated in comparison to the uninhibited control wells. […]

Q: `CC(Cc1ccc(O)c(O)c1)C(C)Cc1ccc(O)c(O)c1` (stereo not shown) [NDGA, Nordihydroguaiaretic acid] was tested. Which 5-LOX enzyme inhibition did it give?
A: 100%
